From US20220241264A1, “METHODS FOR PREVENTION AND TREATMENT OF FIBROMYALGIA BY CONTACT VASODILATORS” (priority 2019, published 2022)

Test system: fibromyalgia pain in soft tissue regions and myofacial regions
Settings: for patient-reported pain levels in the treated regions: daily use in a topical form on skin adjacent to regions where pain is experienced, during treatment; for patient-reported pain levels after treatment is halted: treatment halted after several months, report weeks later
Text: The following prophetic examples are of cases that address the painful experiences associated with fibromyalgia. The examples also describe a new, safe, simple and until now, an unknown pharmaceutical solution to the problem of fibromyalgia syndrome: the novel use of vasodilators such as calcium channel blockers, ACE inhibitors, and angiotensin receptor blockers. Vasodilators are not analgesics, but they resolve or mitigate the pain associated with fibromyalgia.
A patient is diagnosed with fibromyalgia, and suffers from pain in soft tissue regions and myofacial regions. […] After several months, treatment is halted.
A patient is diagnosed with fibromyalgia, and suffers from pain in soft tissue regions and myofacial regions. Daily use of Amlodipine in a topical form is prescribed for application to skin adjacent to regions where pain is experienced. […] After several months, treatment is halted.
A patient is diagnosed with fibromyalgia, and suffers from pain in soft tissue regions and myofacial regions. Daily use of enalapril in a topical form is prescribed for application to skin adjacent to regions where pain is experienced. […] After several months, treatment is halted.
A patient is diagnosed with fibromyalgia, and suffers from pain in soft tissue regions and myofacial regions. Daily use of lisinopril in a topical form is prescribed for application to skin adjacent to regions where pain is experienced. […] After several months, treatment is halted.
A patient is diagnosed with fibromyalgia, and suffers from pain in soft tissue regions and myofacial regions. Daily use of losartan in a topical form is prescribed for application to skin adjacent to regions where pain is experienced. […] After several months, treatment is halted.
A patient is diagnosed with fibromyalgia, and suffers from pain in soft tissue regions and myofacial regions. Daily use of irbesartan in a topical form is prescribed for application to skin adjacent to regions where pain is experienced. […] After several months, treatment is halted.

| Structure (SMILES) | patient-reported pain levels in the treated regions | patient-reported pain levels after treatment is halted |
| --- | --- | --- |
| CCOC(=O)[C@H](CCc1ccccc1)N[C@@H](C)C(=O)N1CCC[C@H]1C(=O)O [enalapril] | reduction in pain levels | reduction in pain levels has been maintained |
| CCCCC1=NC2(CCCC2)C(=O)N1Cc1ccc(-c2ccccc2-c2nnn[nH]2)cc1 [irbesartan] | reduction in pain levels | reduction in pain levels has been maintained |
| NCCCC[C@H](N[C@@H](CCc1ccccc1)C(=O)O)C(=O)N1CCC[C@H]1C(=O)O [lisinopril] | reduction in pain levels | reduction in pain levels has been maintained |
| CCCCc1nc(Cl)c(CO)n1Cc1ccc(-c2ccccc2-c2nn[nH]n2)cc1 [losartan] | reduction in pain levels | reduction in pain levels has been maintained |
